Assay [1] relates to Escherichia coli expressing NDM-1 (CLB30016). Description: Antibiotic potentiation activity: synergistic concentration (MITC95) with imipenem, growth by OD600. It counts as cell-based. The settings on record: E. coli CLB30016 (NDM-1), 95% inhibition of growth. The procedure, abridged: (§1)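 Colonies from overnight agar plates (35 °C) were suspended in saline and diluted 1:100 into 1.1× CAMHB. Inhibitor (final 200 μM to 0.195 μM) was combined with imipenem at 1 or 4 μg/ml, incubated 22–24 h at 35 °C, and absorbance read; MITC95 is the lowest inhibitor concentration giving 95% growth inhibition.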

Assay [2] has as its system Klebsiella pneumoniae expressing VIM-1 (IHMA599644). Described as above. The note with it: K. pneumoniae IHMA599644 (VIM-1), 95% inhibition of growth. It is filed as cell-based. The essentials:
as §1

For assay [3], the system named is Serratia marcescens expressing IMP-1 (CL5741). Described as above. It counts as cell-based. The settings on record: S. marcescens CL5741 (IMP-1), 95% inhibition of growth. The procedure, abridged:
as §1

A further assay has as its target IMP-1 (Serratia marcescens, UniProt P52699). The assay can be described thus: Enzyme activity: determination of IC50, fluorescence assay with CCF2-FA substrate. It counts as biochemical. The note with it: IMP-1 enzyme 2 pM, CCF2-FA 1.25 μM, 2 hours at 25° C.; read-out: IMP1 IC50. The procedure, abridged: (§2)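 Final enzyme levels differed by target: 1 pM NDM-1, 2 pM IMP-1, 30 pM VIM-1. Each was incubated 2 hours at 25° C with test compound and 1.25 μM CCF2-FA, and 460 nm fluorescence (405 nm excitation) was fitted by 4-parameter curve to obtain IC50.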

In another assay the target is VIM-1 (Pseudomonas aeruginosa, UniProt A0A0F7KYQ8). Described as above. It is filed as biochemical. The settings on record: VIM-1 enzyme 30 pM, CCF2-FA 1.25 μM, 2 hours at 25° C.; read-out: VIM1 IC50. The procedure, abridged:
as §2

The target of another assay is NDM-1 (Klebsiella pneumoniae, UniProt C7C422). The assay is described as above. The settings on record: NDM-1 enzyme 1 pM, CCF2-FA 1.25 μM, 2 hours at 25° C.; read-out: NDM1 IC50. It is filed as biochemical. The procedure, abridged: as §2
Chain of NDM-1 (C7C422 29-270, looked up, species assumed): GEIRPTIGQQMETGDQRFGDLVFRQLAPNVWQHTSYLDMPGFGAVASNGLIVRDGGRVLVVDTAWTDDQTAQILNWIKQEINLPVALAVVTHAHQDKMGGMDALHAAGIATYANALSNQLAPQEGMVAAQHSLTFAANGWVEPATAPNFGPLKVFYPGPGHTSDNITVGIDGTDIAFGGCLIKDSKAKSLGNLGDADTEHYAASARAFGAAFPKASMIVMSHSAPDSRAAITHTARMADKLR

Chain of IMP-1 (P52699 19-246, looked up, species assumed): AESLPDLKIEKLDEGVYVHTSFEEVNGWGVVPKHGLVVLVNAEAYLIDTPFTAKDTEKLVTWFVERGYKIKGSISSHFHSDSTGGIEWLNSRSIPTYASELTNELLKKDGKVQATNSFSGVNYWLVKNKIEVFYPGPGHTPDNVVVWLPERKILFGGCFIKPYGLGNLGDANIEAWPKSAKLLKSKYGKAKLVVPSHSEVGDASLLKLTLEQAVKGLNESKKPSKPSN

With `CCC[C@H](C(=O)[O-])[C@H](Cc1ccc(C[N+](C)(C)C)cc1)c1nnn[nH]1` [Example 419, (S)-2-((S)-1-(1H-tetrazol-5-yl)-2-(4-((trimethylammonio)methyl)phenyl)ethyl)pentanoate], the “NDM1 EC30016 MITC95” value in assay [1] came to 6.25 µM. For the same compound, the “VIM1 KP599644 MITC95” value in assay [2] amounted to 12.5 µM. Further, in assay [3], the “IMP1 SM5741 MITC95” value is 50 µM. Besides, the IC50 on IMP-1 was found to be 5920 nM; on VIM-1, 5.51 nM; at NDM-1 it was 869 nM.

`CC(C)(C)[C@H](C(=O)O)C(Cc1ccc(N)nc1)c1nnn[nH]1` (stereo partly drawn) [Example 420, (2R,3S)-4-(6-aminopyridin-3-yl)-2-(tert-butyl)-3-(1H-tetrazol-5-yl)butanoic acid]: the “NDM1 EC30016 MITC95” value in assay [1] was determined as 0.3906 µM. The “VIM1 KP599644 MITC95” value in assay [2] came out at 2.344 µM. Also, the “IMP1 SM5741 MITC95” value in assay [3] was determined as 1.563 µM. The IC50 on IMP-1 was 51.7 nM; at VIM-1, 19.2 nM; at NDM-1, 72.4 nM.

Turning to `CC(C)(C)[C@H](C(=O)O)[C@H](Cc1ccc(O)nc1)c1nnn[nH]1` [Example 421, (2R,3S)-2-(tert-butyl)-4-(6-hydroxypyridin-3-yl)-3-(1H-tetrazol-5-yl)butanoic acid], the “NDM1 EC30016 MITC95” value in assay [1] came to 25 µM. Moreover, the “VIM1 KP599644 MITC95” value in assay [2] stood at 25 µM. In addition, in assay [3], the “IMP1 SM5741 MITC95” value was found to be 100 µM. The IC50 was 156 nM on IMP-1, 24.9 nM on VIM-1 and 157 nM at NDM-1.

Consider `CC(C)(C)[C@H](C(=O)O)[C@H](Cc1ccc(NC(=N)N)nc1)c1nnn[nH]1` [Example 422, (2R,3S)-2-(tert-butyl)-4-(6-guanidinopyridin-3-yl)-3-(1H-tetrazol-5-yl)butanoic acid], for which the “NDM1 EC30016 MITC95” value in assay [1] turned out to be 12.5 µM. Also, in assay [2], the “VIM1 KP599644 MITC95” value stood at 6.25 µM. The “IMP1 SM5741 MITC95” value in assay [3] was determined as 25 µM. In addition, the IC50 was 104 nM on IMP-1, 4.01 nM on VIM-1 and 228 nM on NDM-1.

On to `CC(C)(C)[C@H](C(=O)O)[C@@H](Cc1cccc2sc(Br)nc12)c1nnn[nH]1` [Example 423, (2R,3R)-4-(2-bromobenzo[d]thiazol-4-yl)-2-(tert-butyl)-3-(1H-tetrazol-5-yl)butanoic acid], for which, in assay [1], the “NDM1 EC30016 MITC95” value amounted to 12.5 µM. Besides, the “VIM1 KP599644 MITC95” value in assay [2] came out at 50 µM. In addition, in assay [3], the “IMP1 SM5741 MITC95” value amounted to 25 µM. Besides, the IC50 is 2.77 nM on IMP-1, 0.989 nM at VIM-1 and 1.22 nM at NDM-1.

Consider `CC(C)(C)[C@H](C(=O)O)[C@H](Cc1cccc2sc(N)nc12)c1nnn[nH]1` [Example 424, (2R,3S)-4-(2-aminobenzo[d]thiazol-4-yl)-2-(tert-butyl)-3-(1H-tetrazol-5-yl)butanoic acid], for which the “NDM1 EC30016 MITC95” value in assay [1] stood at 12.5 µM. Moreover, the “VIM1 KP599644 MITC95” value in assay [2] was found to be 200 µM. Moreover, in assay [3], the “IMP1 SM5741 MITC95” value was 25 µM. In addition, the IC50 was 9.29 nM at IMP-1, 10.8 nM at VIM-1 and 2.68 nM at NDM-1.

In the case of `CCC[C@H](C(=O)O)[C@H](Cc1ccc(Br)s1)c1nnn[nH]1` [Example 425, (S)-2-((S)-2-(5-bromothiophen-2-yl)-1-(1H-tetrazol-5-yl)ethyl)pentanoic acid], the “NDM1 EC30016 MITC95” value in assay [1] came to 12.5 µM. For the same compound, the “VIM1 KP599644 MITC95” value in assay [2] was 12.5 µM. Further, the “IMP1 SM5741 MITC95” value in assay [3] is 25 µM. For the same compound, the IC50 stood at 282 nM on IMP-1, 3.63 nM on VIM-1 and 105 nM at NDM-1.

With `CC(C)(C)C(C(=O)O)[C@H](Cc1ccc(Br)s1)c1nnn[nH]1` (stereo partly drawn) [Example 426, (3S)-4-(5-bromothiophen-2-yl)-2-(tert-butyl)-3-(1H-tetrazol-5-yl)butanoic acid], in assay [1], the “NDM1 EC30016 MITC95” value came out at 12.5 µM. Besides, in assay [2], the “VIM1 KP599644 MITC95” value was 150 µM. The “IMP1 SM5741 MITC95” value in assay [3] is 2.344 µM. The IC50 is 27.9 nM on IMP-1, 49.5 nM at VIM-1 and 142 nM on NDM-1.

`CC(C)(C)[C@H](C(=O)O)[C@H](Cc1ccc(NCCN)nc1)c1nnn[nH]1.O=C(O)C(F)(F)F` [Example 427, 2-((5-((2S,3R)-3-carboxy-4,4-dimethyl-2-(1H-tetrazol-5-yl)pentyl)pyridin-2-yl)amino)ethan-1-aminium 2,2,2-trifluoroacetate]: the “NDM1 EC30016 MITC95” value in assay [1] was determined as 1.563 µM. Moreover, the “VIM1 KP599644 MITC95” value in assay [2] stood at 9.375 µM. The “IMP1 SM5741 MITC95” value in assay [3] amounted to 3.125 µM. Besides, the results for the IC50 on IMP-1, on VIM-1 and on NDM-1 were 342 nM, 17.9 nM and 119 nM, respectively.

For the compound `CC(C)(C)[C@H](C(=O)O)[C@H](Cc1ccc(C2=CCNC2)nc1)c1nnn[nH]1.O=C(O)C(F)(F)F` [Example 429, 3-(5-((2S,3R)-3-carboxy-4,4-dimethyl-2-(1H-tetrazol-5-yl)pentyl)pyridin-2-yl)-2,5-dihydro-1H-pyrrol-1-ium 2,2,2-trifluoroacetate], the “NDM1 EC30016 MITC95” value in assay [1] stood at 12.5 µM. The “VIM1 KP599644 MITC95” value in assay [2] was determined as 25 µM. Also, the “IMP1 SM5741 MITC95” value in assay [3] was 18.75 µM. Besides, the IC50 worked out at 615 nM at IMP-1, 23.8 nM on VIM-1 and 781 nM on NDM-1.

On to `CC(C)(C)C(C(=O)O)[C@H](Cc1ccc(C2CCNC2)nc1)c1nnn[nH]1.O=C(O)C(F)(F)F` (stereo partly drawn) [Example 430, 3-(5-((2S)-3-carboxy-4,4-dimethyl-2-(1H-tetrazol-5-yl)pentyl)pyridin-2-yl)pyrrolidin-1-ium 2,2,2-trifluoroacetate], for which the “NDM1 EC30016 MITC95” value in assay [1] came to 12.5 µM. In addition, the “VIM1 KP599644 MITC95” value in assay [2] was 25 µM. For the same compound, the “IMP1 SM5741 MITC95” value in assay [3] was found to be 25 µM. For the same compound, the IC50 at IMP-1 is 544 nM; on VIM-1, 52.6 nM; on NDM-1 it was 620 nM.

Consider `CC(C)(C)[C@H](C(=O)O)[C@H](Cc1ccc(C2CCNC2)cc1)c1nnn[nH]1.O=C(O)C(F)(F)F` (stereo partly drawn) [Example 431, 3-(4-((2S,3R)-3-carboxy-4,4-dimethyl-2-(1H-tetrazol-5-yl)pentyl)phenyl)pyrrolidin-1-ium 2,2,2-trifluoroacetate], for which the “NDM1 EC30016 MITC95” value in assay [1] turned out to be 6.25 µM. Further, in assay [2], the “VIM1 KP599644 MITC95” value was determined as 12.5 µM. Also, in assay [3], the “IMP1 SM5741 MITC95” value was 2.344 µM. In addition, the IC50 on IMP-1 was 32.4 nM; on VIM-1 it was 16.6 nM; at NDM-1, 71.7 nM.

Consider `CCC[C@H](C(=O)O)[C@H](Cc1ccc(C2(O)CCNC2)cc1)c1nnn[nH]1.O=C(O)C(F)(F)F` (stereo partly drawn) [Example 432, 3-(4-((2S,3S)-3-carboxy-2-(1H-tetrazol-5-yl)hexyl)phenyl)-3-hydroxypyrrolidin-1-ium 2,2,2-trifluoroacetate], for which, in assay [1], the “NDM1 EC30016 MITC95” value was determined as 9.375 µM. Moreover, the “VIM1 KP599644 MITC95” value in assay [2] stood at 12.5 µM. In addition, the “IMP1 SM5741 MITC95” value in assay [3] is 12.5 µM. In addition, the figures for the IC50 at IMP-1, on VIM-1 and at NDM-1 were 1010 nM, 5.58 nM and 141 nM, respectively.

With `O=C(O)[C@@H](CCCC1CCNCC1)[C@H](Cc1ccc(C2=CCNC2)cc1)c1nnn[nH]1` [Example 433, (S)-2-((S)-2-(4-(2,5-dihydro-1H-pyrrol-3-yl)phenyl)-1-(1H-tetrazol-5-yl)ethyl)-5-(piperidin-4-yl)pentanoic acid compound with 222,-trifluroacetic acid (1:2)], in assay [1], the “NDM1 EC30016 MITC95” value is 12.5 µM. For the same compound, in assay [2], the “VIM1 KP599644 MITC95” value worked out at 12.5 µM. Besides, the “IMP1 SM5741 MITC95” value in assay [3] stood at 100 µM. Moreover, the IC50 on IMP-1 was 2000 nM; on VIM-1, 10.1 nM; on NDM-1, 87 nM.

In the case of `O=C(O)[C@@H](CCCC1CCNCC1)[C@H](Cc1ccc(C2CCNC2)cc1)c1nnn[nH]1` (stereo partly drawn) [Example 434, (2S)-5-(piperidin-4-yl)-2-((1S)-2-(4-(pyrrolidin-3-yl)phenyl)-1-(1H-tetrazol-5-yl)ethyl)pentanoic acid 2,2,2-trifluoroacetate (1:2)], the “NDM1 EC30016 MITC95” value in assay [1] is 12.5 µM. Moreover, the “VIM1 KP599644 MITC95” value in assay [2] was 25 µM. Further, the “IMP1 SM5741 MITC95” value in assay [3] worked out at 100 µM. In addition, the IC50 on IMP-1 stood at 2000 nM; at VIM-1 it was 16.6 nM; on NDM-1, 67.9 nM.

Take `Nc1ccc(C[C@H](c2nnn[nH]2)[C@H](CC(F)(F)F)C(=O)O)cn1` [Example 435, (S)-2-((S)-2-(6-aminopyridin-3-yl)-1-(1H-tetrazol-5-yl)ethyl)-4,4,4-trifluorobutanoic acid]: the “NDM1 EC30016 MITC95” value in assay [1] worked out at 0.7813 µM. In addition, the “VIM1 KP599644 MITC95” value in assay [2] worked out at 2.344 µM. The “IMP1 SM5741 MITC95” value in assay [3] amounted to 50 µM. The IC50 worked out at 7740 nM at IMP-1, 13.6 nM at VIM-1 and 432 nM on NDM-1.

The values are drawn from patent US9839642B2, “Beta-tetrazolyl-propionic acids as metallo-beta-lactamase inhibitors” (priority 2014, dated 2017).
